Laboratory results as given in patent publication US8138374B2, “Composition for external application to skin” (Shiseido Company, Ltd., priority 2007, dated 2012).

Assay: Solubility evaluation (appearance and solubility)
Format: physicochemical
Settings: for Solubility (%) Ethanol / Appearance (Room Temperature) / Solubility (%) Water: room temperature; for Solubility (%) Ethanol / Solubility (%) Water: judged by appearance, ">" = concentration at which dissolution was confirmed, actual solubility greater than or equal
Method: Furthermore, dissolution was evaluated based on appearance after preparing a solution at room temperature. The solubilities shown in the table indicate the concentration at which dissolution was confirmed, and those results shown with a “>” symbol in the table indicate the concentration at which the substance was confirmed to dissolve, and actual solubility is greater than or equal to this concentration.

Row | SMILES | Solubility (%) Ethanol (ethanol) [%] | Appearance (Room Temperature) | Solubility (%) Water (water) [%] | solubility in ethanol (in words) (ethanol) | solubility in water (in words) (water)
1 | CNCC(=O)N(C)C.Cl [N,N-dimethyl-2-(methylamino)acetoamide hydrochloride] | >14.1 | White crystal | >77 |  | 
2 | CNCC(=O)N(C)C [N,N-dimethyl-2-(methylamino)acetoamide] | >58 | Liquid | >55 |  | 
3 | CNCC(=O)O [Sarcosine, reference compound] | 0.10 |  | 71.5 | poorly soluble | high solubility
